Our source for the LC retention time values is the RepoRT retention time repository.

Counter-ions that a name gives are not always drawn.

This series is described as follows: HILIC, Merck SeQuant ZIC-HILIC, 25 °C, 0.25 mL/min; A: water + 16 mM ammonium formate; B: acetonitrile + 0.1% formic acid, pH 3; gradient (min/%B) 0/97 2/97 10/70 15/10 17/10 18/97 25/97. The following applies: stereoisomer not certain.
On to `CN1CC(=O)NC1=N` [CREATININE], for which the LC retention time was 11.7 min. `Nc1nc2c(ncn2C2OC3COP(=O)(O)OC3C2O)c(=O)[nH]1` (stereo unspecified) [CYCLIC GMP]: the LC retention time was determined as 13.4 min. With `NC(CS)C(=O)NCC(=O)O` (stereo unspecified) [CYS-GLY_2M] the figure was 16.3 min; with `NC(CCSCC(N)C(=O)O)C(=O)O` (stereo unspecified) [CYSTATHIONINE], 15.4 min.

On to `NCCS` [CYSTEAMINE], for which the LC retention time was 16.9 min.

`NC(CSSCC(N)C(=O)O)C(=O)O` (stereo unspecified) [CYSTINE]: the LC retention time worked out at 15.4 min. For `Nc1ccn(C2OC(CO)C3OP(=O)(O)OC32)c(=O)n1` (stereo unspecified) [CYTIDINE 2'-3'-CYCLIC PHOSPHATE], the LC retention time came out at 13.6 min.

With `Nc1ccn(C2OC(COP(=O)(O)OP(=O)(O)O)C(O)C2O)c(=O)n1` (stereo unspecified) [CYTIDINE DIPHOSPHATE], the LC retention time amounted to 15.4 min. With `Nc1ccn(C2OC(COP(=O)(O)OP(=O)(O)OP(=O)(O)O)C(O)C2O)c(=O)n1` (stereo unspecified) [CYTIDINE TRIPHOSPHATE] the figure was 15.9 min. With `Nc1ccnc(=O)[nH]1` [CYTOSINE] the figure was 12 min; with `CN1C(=O)CCC1c1cccnc1` (stereo unspecified) [Cotinine], 2.21 min; with `O=C[C@H](O)[C@H](O)CO` [D-(-)-Erythrose], 8.22 min. In the case of `O=CC(O)C1OC(=O)C(O)C1O` [D-GLUCURONOLACTONE], the LC retention time worked out at 8.75 min. With `Nc1ncnc2c1ncn2C1CC(O)C(COP(=O)(O)O)O1` (stereo unspecified) [DEOXYADENOSINE MONOPHOSPHATE] the figure was 13.3 min. For `Nc1ncnc2c1ncn2C1CC(O)C(COP(=O)(O)OP(=O)(O)OP(=O)(O)O)O1` (stereo unspecified) [DEOXYADENOSINE TRIPHOSPHATE], the LC retention time came out at 15.7 min. In the case of `Nc1ccn(C2CC(O)C(COP(=O)(O)O)O2)c(=O)n1` (stereo unspecified) [DEOXYCYTIDINE MONOPHOSPHATE] it was 14.5 min.

Regarding `Nc1ccn(C2CC(O)C(COP(=O)([O-])OP(=O)([O-])[O-])O2)c(=O)n1` (stereo unspecified) [DEOXYCYTIDINE-DIPHOSPHATE], the LC retention time is 15.2 min. In the case of `O=c1ccn(C2CC(O)C(COP(=O)(O)O)O2)c(=O)[nH]1` (stereo unspecified) [DEOXYURIDINE-MONOPHOSPHATE] it was 13.4 min; in that of `O=c1ccn(C2CC(O)C(CO)O2)c(=O)[nH]1` (stereo unspecified) [DEOXYURIDINE], 2.45 min. With `CC1NC(=O)NC1CCCCCC(=O)O` (stereo unspecified) [DETHIOBIOTIN] the figure was 2.13 min.

Regarding `Nc1nc2c(ncn2C2CC(O)C(COP(=O)(O)OP(=O)(O)O)O2)c(=O)[nH]1` (stereo unspecified) [DGDP], the LC retention time is 15.2 min. With `Nc1nc2c(ncn2C2CC(O)C(COP(=O)(O)OP(=O)(O)OP(=O)(O)O)O2)c(=O)[nH]1` (stereo unspecified) [DGTP] the figure was 15.7 min; with `CCCCCCCCCC(=O)OCC(COP(=O)([O-])OCC[N+](C)(C)C)OC(=O)CCCCCCCCC` (stereo unspecified) [DIDECANOYL-GLYCEROPHOSPHOCHOLINE], 10.6 min. In the case of `OCCNCCO` [DIETHANOLAMINE] it was 13.1 min; in that of `Nc1nc2c(c(=O)[nH]1)N=C(CNc1ccc(C(=O)NC(CCC(=O)O)C(=O)O)cc1)CN2` (stereo unspecified) [DIHYDROFOLATE], 12.4 min. With `O=C1CC(C(=O)O)NC(=O)N1` (stereo unspecified) [DIHYDROOROTATE] the figure was 10.6 min; with `O=C1CCNC(=O)N1` [DIHYDROURACIL], 2.13 min; with `O=C(CO)COP(=O)(O)O` [DIHYDROXYACETONE PHOSPHATE], 14 min. Take `CCCCCCCCCCCCCCCC(=O)OCC(COP(=O)(O)OCCN)OC(=O)CCCCCCCCCCCCCCC` (stereo unspecified) [DIPALMITOYL-PHOSPHOETHANOLAMINE]: the LC retention time was found to be 9.35 min. With `CCCCCCCCCCCCCCCC(=O)OCC(CO)OC(=O)CCCCCCCCCCCCCCC` (stereo unspecified) [DIPALMITOYLGLYCEROL] the figure was 1.5 min; with `NCCc1ccc(O)c(O)c1` [DOPAMINE], 12.5 min; with `Cc1cn(C2CC(O)C(COP(=O)(O)OP(=O)(O)OC3OC(CO)C(O)C(O)C3O)O2)c(=O)[nH]c1=O` [DTDP-D-GLUCOSE], 14.4 min. With `CC(=O)C1C(=O)C=C(C)OC1=O` (stereo unspecified) [Dehydroacetic acid], the LC retention time came to 1.56 min. In the case of `COC(=O)C(=O)OC` [Dimethyl oxalate] it was 2.24 min; in that of `CC12CCC3c4ccc(O)cc4CCC3C1CCC2O` (stereo not drawn) [ESTRADIOL-17ALPHA], 1.7 min; in that of `NCCOP(=O)(O)O` [ETHANOLAMINE PHOSPHATE], 14.9 min. Take `CCOC(=O)CCNC(N)=O` [ETHYL 3-UREIDOPROPIONATE]: the LC retention time came out at 2.14 min. With `Cc1cc2nc3c(=O)[nH]c(=O)nc-3n(CC(O)C(O)C(O)COP(=O)(O)OP(=O)(O)OCC3OC(n4cnc5c(N)ncnc54)C(O)C3O)c2cc1C` (stereo unspecified) [FAD] the figure was 13.8 min; with `COc1cc(C=CC(=O)O)ccc1O` [FERULATE], 1.94 min. With `O=C[O-]` [FORMATE] the figure was 2.79 min; with `O=P(O)(O)OC1OC(CO)C(O)C(O)C1O` (stereo unspecified) [GALACTOSE 1-PHOSPHATE], 14.7 min. With `NCCCC(=O)O` [GAMMA-AMINOBUTYRATE] the figure was 13.5 min. Take `O=C(O)C(O)C(O)C(O)C(O)CO` (stereo unspecified) [GLUCONATE]: the LC retention time came to 13.6 min. In the case of `O=C1OC(CO)C(O)C(O)C1O` (stereo unspecified) [GLUCONOLACTONE] it was 14.5 min; in that of `NC(C(=O)O)C(O)C(O)C(O)CO` (stereo unspecified) [GLUCOSAMINATE], 14.7 min. With `NC1C(O)OC(COS(=O)(=O)O)C(O)C1O` (stereo unspecified) [GLUCOSAMINE 6-SULFATE] the figure was 15.5 min; with `NC(CCC(=O)O)C(=O)O` (stereo unspecified) [GLUTAMATE], 14.2 min. With `O=C(O)CCCC(=O)O` [GLUTARATE] the figure was 2.13 min. Take `O=CC(O)CO` (stereo unspecified) [GLYCERALDEHYDE]: the LC retention time is 2.77 min. With `O=C(O)C(O)CO` (stereo unspecified) [GLYCERATE] the figure was 8.39 min; with `O=P(O)(O)OCC(O)CO` (stereo unspecified) [GLYCEROL 3-PHOSPHATE], 14.1 min. With `CCCCCCCCCCCCCC(=O)OCC(O)CO` (stereo unspecified) [GLYCEROL-MYRISTATE] the figure was 1.64 min; with `O=C(O)CO` [GLYCOLATE], 4 min; with `NC(N)=NCC(=O)O` [GUANIDINOACETATE], 14 min. In the case of `NC(N)=NC(CC(=O)O)C(=O)O` (stereo unspecified) [GUANIDINOSUCCINATE], the LC retention time came to 14.4 min.

Take `Nc1nc2nc[nH]c2c(=O)[nH]1` [GUANINE]: the LC retention time came out at 10.8 min.

For the compound `Nc1nc2c(ncn2C2OC(COP(=O)(O)OP(=O)(O)OC3OC(CO)C(O)C(O)C3O)C(O)C2O)c(=O)[nH]1` (stereo unspecified) [GUANOSINE DIPHOSPHATE MANNOSE], the LC retention time came out at 15.2 min.

For the compound `Nc1nc2c(ncn2C2OC(COP(=O)(O)OP(=O)(O)O)C(O)C2O)c(=O)[nH]1` (stereo unspecified) [GUANOSINE DIPHOSPHATE], the LC retention time came out at 15.4 min. As to `Nc1nc2c(ncn2C2OC(COP(=O)(O)O)C(O)C2O)c(=O)[nH]1` (stereo unspecified) [GUANOSINE MONOPHOSPHATE], the LC retention time came to 14.7 min. In the case of `Nc1nc2c(ncn2C2OC(CO)C(O)C2O)c(=O)[nH]1` (stereo unspecified) [GUANOSINE] it was 11.4 min; in that of `NCC(=O)NCC(=O)O` [Gly-Gly], 14.9 min. With `[NH3+]CC(=O)N1CCCC1C(=O)[O-]` (stereo unspecified) [Gly-Pro] the figure was 15 min; with `O=C(O)CNC(=O)c1ccccc1` [HIPPURATE], 2.12 min. With `NCCc1cnc[nH]1` [HISTAMINE] the figure was 17 min. For the compound `NC(CO)Cc1cnc[nH]1` (stereo unspecified) [HISTIDINOL], the LC retention time was 17 min. `NC1CCSC1=O` (stereo unspecified) [HOMOCYSTEINE THIOLACTONE]: the LC retention time was found to be 11.8 min. Take `NC(CCS)C(=O)O` (stereo unspecified) [HOMOCYSTEINE]: the LC retention time stood at 12.4 min.

With `NC(CCSSCCC(N)C(=O)O)C(=O)O` (stereo unspecified) [HOMOCYSTINE], the LC retention time came out at 15 min. In the case of `COc1cc(CC(=O)O)ccc1O` [HOMOVANILLATE] it was 2.04 min; in that of `Nc1c(O)cccc1C(=O)CC(N)C(=O)O` (stereo unspecified) [HYDROXYKYNURENINE], 12 min. In the case of `O=C(O)C(O)Cc1ccc(O)cc1` (stereo unspecified) [HYDROXYPHENYLLACTATE] it was 5.36 min. In the case of `O=C(O)C(=O)CO` [HYDROXYPYRUVATE] it was 13.3 min. For `NCCS(=O)O` [HYPOTAURINE], the LC retention time turned out to be 13.9 min. With `O=c1[nH]cnc2nc[nH]c12` [HYPOXANTHINE] the figure was 8.77 min; with `O=C(O)Cc1c[nH]c2ccccc12` [INDOLE-3-ACETATE], 2.06 min; with `OCCc1c[nH]c2ccccc12` [INDOLE-3-ETHANOL], 1.82 min.

For the compound `COC(=O)Cc1c[nH]c2ccccc12` [INDOLE-3-METHYL ACETATE], the LC retention time is 1.61 min.

`O=C(O)C(=O)Cc1c[nH]c2ccccc12` [INDOLE-3-PYRUVATE]: the LC retention time was determined as 1.88 min. In the case of `O=CCc1c[nH]c2ccccc12` [INDOLEACETALDEHYDE] it was 10 min; in that of `O=c1[nH]cnc2c1ncn2C1OC(COP(=O)([O-])OP(=O)([O-])O)C(O)C1O` (stereo unspecified) [INOSINE 5'-DIPHOSPHATE], 15 min; in that of `O=c1[nH]cnc2c1ncn2C1OC(CO)C(O)C1O` (stereo unspecified) [INOSINE], 10.3 min. With `CC(C)C(=O)O` [ISOBUTYRATE] the figure was 2.11 min; with `CCC(C)C(N)C(=O)O` (stereo unspecified) [ISOLEUCINE], 11.6 min.

With `C=C(C)CCOP(=O)(O)OP(=O)(O)O` [ISOPENTENYL PYROPHOSPHATE], the LC retention time stood at 2.11 min. In the case of `Cc1cc(=O)oc(C)c1C(=O)O` [Isodehydracetic acid] it was 2.33 min. Regarding `O=C(O)c1cc[n+]([O-])cc1` [Isonicotinic acid N-oxide], the LC retention time was 9.7 min.
